Assay results: US9820943B2, “Micronized amoxicillin” (DSM SINOCHEM PHARMACEUTICALS NETHERLANDS B.V., priority 2013, dated 2017)

Legend:
Assay type in all cases: physicochemical
[1] = Specific powder surface area by nitrogen gas sorption (BET); settings: triplicate, trihydrate
Protocol: Specific powder surface area was determined using nitrogen gas sorption (Smartsorb, Smart Instruments, Mumbai, India). Prior to measurements, samples were regenerated by degassing to remove moisture and contamination. The regenerated sample was dipped in liquid nitrogen and the quantity of the adsorbed gas was measured using a thermal conductivity detector and subsequently integrated using an electronic circuit in terms of counts. The instrument was calibrated by injecting a known quantity of nitrogen. The measured parameters were subsequently used to calculate the surface area of the sample by employing the adsorption theories of Brunauer, Emmett and Teller (BET).
(§1) Parameters operated were: • Augar Speed: 5-90 rpm • Primary Air Pressure: 2-8 kg·cm^−2 • Secondary Air Pressure: 4-10 kg·cm^−2 The surface area (in triplicate), average particle size and contact angle (in quadruplicate) were determined as outlined in the General section. The purity of the amoxicillin trihydrate samples was 99.4±0.3% and were void of dichloromethane, isopropanol, pivalic acid and triethyl amine.

[2] = Particle size distribution by laser diffraction (Malvern); settings: trihydrate
Protocol: Particle size distribution values D10, D50, D90 and D100 were determined using laser diffraction applying Malvern equipment. A suitable apparatus for determining D10, D50, D90 and D100 is a Malvern particle sizer 2600 C or a Malvern Zeta Sizer.
as §1

[3] = Contact angle by sessile drop method (water); settings: ambient conditions, trihydrate
Protocol: Contact angles of amoxicillin trihydrate powder samples were measured by the sessile drop method using an Drop Shape Analyzer instrument (FTA 1000, First Ten Angstrom, Virginia, USA). Powder samples were mounted on double sided adhesive tape adhered to a glass slide and excess powder was removed by tapping the slide. A drop of probe liquid (water) was dispersed onto the sample surface and video images were captured by the FTA image analyzer. The contact angle was calculated by the instrument by fitting a mathematical expression to the shape of the drop followed by calculating the slope of the tangent to the drop at the liquid-solid-vapor interface line. The surface tension of ultrapure ELGA laboratory water was measured to be 73±0.5 mN·m^−1 at 25° C. All measurements were performed in air under ambient conditions and an average of four measurements was reported in the below Examples.
as §1

[4] = Powder dissolution, USP/NF paddle method with HPLC analysis; settings: 500 mg in 900 mL water, 37 °C, 75 rpm; for Amoxicillin released in solution Mean: mean of 3; for Amoxicillin released in solution #1: replicate #1; for Amoxicillin released in solution #2: replicate #2; for Amoxicillin released in solution #3: replicate #3
Protocol: Dissolution analysis of amoxicillin trihydrate powder samples was carried out using the USP/NF paddle method at a rotational speed of 75 rpm. Ultrapure ELGA laboratory water (900 mL) was used as dissolution medium. Media were equilibrated to 37.0±0.5° C. prior to dissolution. Amoxicillin trihydrate sample powder (500 mg) was directly added to the dissolution apparatus (Electrolab USP-24, India). Samples were collected at 0, 1, 3, 5, 10, 15, 30, 60 and 90 min, filtered through 0.2 μm filters and analyzed by HPLC. Dissolution profiles were constructed by plotting the percentage amoxicillin released against time.
The HPLC system (Shimadzu Corporation, Kyoto, Japan) comprised of an SCL-10A VP system controller, LC-10AT VP liquid chromatograph, FCV-10AL VP flow control valve, DGU-14A degasser, SIL-10AD VP auto-injector, CTO-10AS VP column oven, SPD-M20A prominence diode array (PDA) detector and data acquisition Class-VP 6.10 software. The HPLC method was adopted from the United States Pharmacopoeia (USP). The method was validated for linearity, precision, accuracy and intra- and inter-day variability. The mobile phase was 50 mM monobasic potassium phosphate:methanol (96:4, v/v, pH 5.0). All analyses were carried out using Lichrospher® 100 RP-18e analytical column (5 μm, Merck KGaA, Darmstadt, Germany) under isocratic conditions at a flow rate of 1.0 mL·min^−1 at 25° C. with 20 μL injection volume. Effluent was monitored at a wavelength of 230 nm. Samples for calibration curve generation were prepared in 50 mM monobasic potassium phosphate:methanol 1:1 (v/v) proportion at a concentration range of 1 to 600 μg·mL^−1.
The three non-micronized (i.e. entries 1-3 of Table 1) and micronized (i.e. entries 4-6 of Table 1) amoxicillin trihydrate samples of Example 1 were subjected to a powder dissolution test (in triplicate) as outlined in the General section.

In the case of `CC1(C)S[C@@H]2[C@H](NC(=O)[C@H](N)c3ccc(O)cc3)C(=O)N2[C@H]1C(=O)O.O.O.O` [entry 1, amoxicillin trihydrate], the “Surface Area Mean ± SD (n = 3)” value [1] was 0.58 ± 0.09 m^2 · g^−1, the “Average Particle Size D10” value [2] was 12.3 μm and the “Average Particle Size D50” value [2] was 39.8 μm. For the same compound, the “Average Particle Size D90” value [2] was 93.3 μm, the “Average Particle Size D100” value [2] was 275.9 μm and the “Contact Angle Mean ± SD (n = 4)” value [3] was 75.50 ± 2.95. For the same compound, the “Amoxicillin released in solution Mean” value ([4]; 0 min) was 0%, the “Amoxicillin released in solution #1” value ([4]; 0 min) was 0% and the “Amoxicillin released in solution #2” value ([4]; 0 min) was 0%. The “Amoxicillin released in solution #3” value ([4]; 0 min) was 0%, the “Amoxicillin released in solution Mean” value ([4]; 1 min, trihydrate) was 85.98% and the “Amoxicillin released in solution #1” value ([4]; 1 min, trihydrate) was 84.65%. The “Amoxicillin released in solution #2” value ([4]; 1 min, trihydrate) was 86.65%, the “Amoxicillin released in solution #3” value ([4]; 1 min, trihydrate) was 86.65% and the “Amoxicillin released in solution Mean” value ([4]; 3 min, trihydrate) was 99.25%. For the same compound, the “Amoxicillin released in solution #1” value ([4]; 3 min, trihydrate) was 99.74%, the “Amoxicillin released in solution #2” value ([4]; 3 min, trihydrate) was 99.01% and the “Amoxicillin released in solution #3” value ([4]; 3 min, trihydrate) was 99.01%. For the same compound, the “Amoxicillin released in solution Mean” value ([4]; 5 min, trihydrate) was 99.51%, the “Amoxicillin released in solution #1” value ([4]; 5 min, trihydrate) was 99.44% and the “Amoxicillin released in solution #2” value ([4]; 5 min, trihydrate) was 99.54%. For the same compound, the “Amoxicillin released in solution #3” value ([4]; 5 min, trihydrate) was 99.54%, the “Amoxicillin released in solution Mean” value ([4]; 10 min, trihydrate) was 99.14% and the “Amoxicillin released in solution #1” value ([4]; 10 min, trihydrate) was 98.65%. The “Amoxicillin released in solution #2” value ([4]; 10 min, trihydrate) was 99.04%, the “Amoxicillin released in solution #3” value ([4]; 10 min, trihydrate) was 99.73% and the “Amoxicillin released in solution Mean” value ([4]; 15 min, trihydrate) was 99.12%. The “Amoxicillin released in solution #1” value ([4]; 15 min, trihydrate) was 99.28%, the “Amoxicillin released in solution #2” value ([4]; 15 min, trihydrate) was 98.69% and the “Amoxicillin released in solution #3” value ([4]; 15 min, trihydrate) was 99.38%. For the same compound, the “Amoxicillin released in solution Mean” value ([4]; 30 min, trihydrate) was 99.31%, the “Amoxicillin released in solution #1” value ([4]; 30 min, trihydrate) was 99.50% and the “Amoxicillin released in solution #2” value ([4]; 30 min, trihydrate) was 99.56%. The “Amoxicillin released in solution #3” value ([4]; 30 min, trihydrate) was 98.87%, the “Amoxicillin released in solution Mean” value ([4]; 60 min, trihydrate) was 99.25% and the “Amoxicillin released in solution #1” value ([4]; 60 min, trihydrate) was 99.56%. The “Amoxicillin released in solution #2” value ([4]; 60 min, trihydrate) was 99.10%, the “Amoxicillin released in solution #3” value ([4]; 60 min, trihydrate) was 99.10% and the “Amoxicillin released in solution Mean” value ([4]; 90 min, trihydrate) was 99.76%. The “Amoxicillin released in solution #1” value ([4]; 90 min, trihydrate) was 99.93%, the “Amoxicillin released in solution #2” value ([4]; 90 min, trihydrate) was 99.61% and the “Amoxicillin released in solution #3” value ([4]; 90 min, trihydrate) was 99.74%.
For `CC1(C)S[C@@H]2[C@H](NC(=O)[C@H](N)c3ccc(O)cc3)C(=O)N2[C@H]1C(=O)O.O.O.O` [entry 2, amoxicillin trihydrate], the “Surface Area Mean ± SD (n = 3)” value [1] was 0.69 ± 0.03 m^2 · g^−1, the “Average Particle Size D10” value [2] was 13.5 μm and the “Average Particle Size D50” value [2] was 40.6 μm. For the same compound, the “Average Particle Size D90” value [2] was 94.3 μm, the “Average Particle Size D100” value [2] was 237.5 μm and the “Contact Angle Mean ± SD (n = 4)” value [3] was 67.70 ± 1.39. For the same compound, the “Amoxicillin released in solution Mean” value ([4]; 0 min) was 0%, the “Amoxicillin released in solution #1” value ([4]; 0 min) was 0% and the “Amoxicillin released in solution #2” value ([4]; 0 min) was 0%. For the same compound, the “Amoxicillin released in solution #3” value ([4]; 0 min) was 0%, the “Amoxicillin released in solution Mean” value ([4]; 1 min, trihydrate) was 61.71% and the “Amoxicillin released in solution #1” value ([4]; 1 min, trihydrate) was 61.68%. The “Amoxicillin released in solution #2” value ([4]; 1 min, trihydrate) was 61.21%, the “Amoxicillin released in solution #3” value ([4]; 1 min, trihydrate) was 62.23% and the “Amoxicillin released in solution Mean” value ([4]; 3 min, trihydrate) was 99.69%. For the same compound, the “Amoxicillin released in solution #1” value ([4]; 3 min, trihydrate) was 99.58%, the “Amoxicillin released in solution #2” value ([4]; 3 min, trihydrate) was 99.88% and the “Amoxicillin released in solution #3” value ([4]; 3 min, trihydrate) was 99.60%. For the same compound, the “Amoxicillin released in solution Mean” value ([4]; 5 min, trihydrate) was 98.99%, the “Amoxicillin released in solution #1” value ([4]; 5 min, trihydrate) was 99.89% and the “Amoxicillin released in solution #2” value ([4]; 5 min, trihydrate) was 99.79%. The “Amoxicillin released in solution #3” value ([4]; 5 min, trihydrate) was 97.29%, the “Amoxicillin released in solution Mean” value ([4]; 10 min, trihydrate) was 99.66% and the “Amoxicillin released in solution #1” value ([4]; 10 min, trihydrate) was 99.66%. For the same compound, the “Amoxicillin released in solution #2” value ([4]; 10 min, trihydrate) was 98.95%, the “Amoxicillin released in solution #3” value ([4]; 10 min, trihydrate) was 100.36% and the “Amoxicillin released in solution Mean” value ([4]; 15 min, trihydrate) was 99.43%. The “Amoxicillin released in solution #1” value ([4]; 15 min, trihydrate) was 99.51%, the “Amoxicillin released in solution #2” value ([4]; 15 min, trihydrate) was 98.98% and the “Amoxicillin released in solution #3” value ([4]; 15 min, trihydrate) was 99.80%. For the same compound, the “Amoxicillin released in solution Mean” value ([4]; 30 min, trihydrate) was 99.33%, the “Amoxicillin released in solution #1” value ([4]; 30 min, trihydrate) was 99.65% and the “Amoxicillin released in solution #2” value ([4]; 30 min, trihydrate) was 99.00%. For the same compound, the “Amoxicillin released in solution #3” value ([4]; 30 min, trihydrate) was 99.34%, the “Amoxicillin released in solution Mean” value ([4]; 60 min, trihydrate) was 99.45% and the “Amoxicillin released in solution #1” value ([4]; 60 min, trihydrate) was 99.56%. The “Amoxicillin released in solution #2” value ([4]; 60 min, trihydrate) was 99.17%, the “Amoxicillin released in solution #3” value ([4]; 60 min, trihydrate) was 99.60% and the “Amoxicillin released in solution Mean” value ([4]; 90 min, trihydrate) was 99.15%. For the same compound, the “Amoxicillin released in solution #1” value ([4]; 90 min, trihydrate) was 99.24%, the “Amoxicillin released in solution #2” value ([4]; 90 min, trihydrate) was 99.24% and the “Amoxicillin released in solution #3” value ([4]; 90 min, trihydrate) was 98.96%.
